Values belong to the compound of their own block, whether it stands above or below them.
Legend:
[1] = target: T1, Sphingosine kinase 2 (Homo sapiens) (UniProt Q9NRA0); experiment: Selectivity interaction (Adapta Assay) EUB0001632a SPHK2; conditions: at 10 µM
T1 sequence (whole entry): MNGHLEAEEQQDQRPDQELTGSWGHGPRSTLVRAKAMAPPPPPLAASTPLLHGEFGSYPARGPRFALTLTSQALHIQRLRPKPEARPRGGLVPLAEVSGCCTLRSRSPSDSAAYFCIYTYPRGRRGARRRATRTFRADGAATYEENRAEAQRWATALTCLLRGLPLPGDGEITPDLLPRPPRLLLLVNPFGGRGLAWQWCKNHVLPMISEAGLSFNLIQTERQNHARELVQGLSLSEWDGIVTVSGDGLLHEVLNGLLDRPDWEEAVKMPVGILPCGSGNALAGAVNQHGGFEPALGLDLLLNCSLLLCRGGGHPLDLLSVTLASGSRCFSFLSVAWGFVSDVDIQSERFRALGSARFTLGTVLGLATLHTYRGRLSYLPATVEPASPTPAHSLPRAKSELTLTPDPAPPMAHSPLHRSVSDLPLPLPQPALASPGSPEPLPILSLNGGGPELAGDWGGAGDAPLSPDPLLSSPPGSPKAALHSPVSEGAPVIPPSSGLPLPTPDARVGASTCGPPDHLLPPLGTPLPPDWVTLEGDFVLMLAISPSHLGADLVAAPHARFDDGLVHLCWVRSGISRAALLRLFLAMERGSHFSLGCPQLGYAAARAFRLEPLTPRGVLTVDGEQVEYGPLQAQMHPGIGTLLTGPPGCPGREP

[2] = target: T2, Histone-lysine N-methyltransferase SUV39H1 (Homo sapiens) (UniProt O43463); experiment: Selectivity interaction (Methyltransferase screen (radiometric assays, panel of 8 PRMTs, 21 protein lysine methyltransferases, 3 DNA methyltransferases, and one RNA methyltransferase)) EUB0000272b SUV39H1
T2 sequence (whole entry): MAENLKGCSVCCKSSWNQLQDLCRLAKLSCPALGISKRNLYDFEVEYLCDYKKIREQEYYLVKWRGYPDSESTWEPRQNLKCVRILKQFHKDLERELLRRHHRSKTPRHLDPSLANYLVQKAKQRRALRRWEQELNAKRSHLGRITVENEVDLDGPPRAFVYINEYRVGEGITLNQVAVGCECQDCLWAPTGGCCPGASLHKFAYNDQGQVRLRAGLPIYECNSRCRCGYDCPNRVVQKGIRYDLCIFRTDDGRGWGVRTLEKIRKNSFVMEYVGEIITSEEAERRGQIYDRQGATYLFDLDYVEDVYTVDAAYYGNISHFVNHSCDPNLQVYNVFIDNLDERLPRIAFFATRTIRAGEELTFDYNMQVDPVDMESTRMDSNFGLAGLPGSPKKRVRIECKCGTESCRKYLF

[3] = target: T3, Serine/threonine-protein kinase TBK1 (Homo sapiens) (UniProt Q9UHD2); experiment: Selectivity interaction (KinomeScan (DiscoverX)) EUB0000666a TBK1; conditions: at 10 µM
T3 sequence (whole entry): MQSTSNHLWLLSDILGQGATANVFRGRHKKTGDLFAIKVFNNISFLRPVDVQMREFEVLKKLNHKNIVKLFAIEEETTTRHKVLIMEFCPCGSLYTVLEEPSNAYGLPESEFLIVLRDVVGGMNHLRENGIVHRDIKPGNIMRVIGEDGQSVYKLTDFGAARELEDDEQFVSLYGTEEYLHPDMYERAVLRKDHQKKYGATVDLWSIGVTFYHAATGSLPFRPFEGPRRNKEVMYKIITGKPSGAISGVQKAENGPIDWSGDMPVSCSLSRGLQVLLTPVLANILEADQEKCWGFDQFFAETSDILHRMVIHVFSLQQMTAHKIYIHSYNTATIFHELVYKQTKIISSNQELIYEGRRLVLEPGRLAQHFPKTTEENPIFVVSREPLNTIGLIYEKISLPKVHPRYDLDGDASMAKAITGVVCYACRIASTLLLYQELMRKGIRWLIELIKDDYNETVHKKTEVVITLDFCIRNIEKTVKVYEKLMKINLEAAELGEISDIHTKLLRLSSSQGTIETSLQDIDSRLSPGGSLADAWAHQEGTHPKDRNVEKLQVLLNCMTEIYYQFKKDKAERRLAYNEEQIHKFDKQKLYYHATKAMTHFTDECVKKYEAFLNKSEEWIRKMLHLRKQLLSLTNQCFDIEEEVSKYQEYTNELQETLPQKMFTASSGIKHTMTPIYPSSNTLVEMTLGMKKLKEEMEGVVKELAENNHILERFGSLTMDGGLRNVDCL

[4] = target: T4, Dual specificity protein kinase TTK (Homo sapiens) (UniProt P33981); conditions: at 10 µM
T4 sequence (whole entry): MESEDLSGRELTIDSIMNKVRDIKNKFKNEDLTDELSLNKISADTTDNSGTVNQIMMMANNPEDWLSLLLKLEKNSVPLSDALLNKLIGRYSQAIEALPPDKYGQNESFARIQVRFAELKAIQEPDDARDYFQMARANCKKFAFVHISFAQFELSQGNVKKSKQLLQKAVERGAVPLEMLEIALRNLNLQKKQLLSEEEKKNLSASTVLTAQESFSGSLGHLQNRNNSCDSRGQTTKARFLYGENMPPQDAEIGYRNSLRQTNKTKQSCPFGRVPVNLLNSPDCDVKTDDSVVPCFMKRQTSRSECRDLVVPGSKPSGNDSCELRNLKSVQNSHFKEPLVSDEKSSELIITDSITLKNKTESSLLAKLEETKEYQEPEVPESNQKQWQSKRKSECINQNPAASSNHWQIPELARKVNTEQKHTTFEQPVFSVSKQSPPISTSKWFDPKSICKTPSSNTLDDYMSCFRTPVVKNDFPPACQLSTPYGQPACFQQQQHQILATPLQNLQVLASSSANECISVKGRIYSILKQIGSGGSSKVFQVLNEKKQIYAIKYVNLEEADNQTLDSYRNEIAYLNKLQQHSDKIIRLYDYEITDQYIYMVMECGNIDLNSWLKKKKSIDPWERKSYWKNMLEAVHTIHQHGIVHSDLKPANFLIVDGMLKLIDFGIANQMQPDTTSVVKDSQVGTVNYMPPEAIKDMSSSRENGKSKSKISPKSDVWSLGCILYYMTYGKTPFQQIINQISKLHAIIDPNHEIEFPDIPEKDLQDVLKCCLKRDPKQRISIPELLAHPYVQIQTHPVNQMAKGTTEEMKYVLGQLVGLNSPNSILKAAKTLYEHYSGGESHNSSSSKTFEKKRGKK

[5] = target: Protein arginine N-methyltransferase 6 (Homo sapiens, UniProt Q96LA8); experiment: Selectivity interaction (Methyltransferase screen (radiometric assays, panel of 8 PRMTs, 21 protein lysine methyltransferases, 3 DNA methyltransferases, and one RNA methyltransferase)) EUB0000271b PRMT6
Sequence of Protein arginine N-methyltransferase 6 (Q96LA8 whole entry, looked up): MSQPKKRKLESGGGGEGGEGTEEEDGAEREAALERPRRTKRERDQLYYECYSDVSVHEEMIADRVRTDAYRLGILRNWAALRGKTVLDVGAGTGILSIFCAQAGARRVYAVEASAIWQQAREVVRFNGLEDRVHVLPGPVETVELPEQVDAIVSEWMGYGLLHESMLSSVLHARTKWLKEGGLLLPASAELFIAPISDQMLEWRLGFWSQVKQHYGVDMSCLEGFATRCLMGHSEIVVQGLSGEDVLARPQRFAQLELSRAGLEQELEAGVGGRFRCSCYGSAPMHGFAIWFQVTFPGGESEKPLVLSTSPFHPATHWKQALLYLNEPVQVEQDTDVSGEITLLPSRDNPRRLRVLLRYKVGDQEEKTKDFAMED

[6] = target: Serine/threonine-protein kinase WNK1 (Homo sapiens) (UniProt Q9H4A3); experiment: Selectivity interaction (ActivX KiNativ screen (ex vivo kinase selectivity in human PBMCs)) EUB0001619a WNK1; format: cell-based; conditions: PBMC, at 1 µM
Sequence of Serine/threonine-protein kinase WNK1 (Homo sapiens) (Q9H4A3 whole entry, looked up): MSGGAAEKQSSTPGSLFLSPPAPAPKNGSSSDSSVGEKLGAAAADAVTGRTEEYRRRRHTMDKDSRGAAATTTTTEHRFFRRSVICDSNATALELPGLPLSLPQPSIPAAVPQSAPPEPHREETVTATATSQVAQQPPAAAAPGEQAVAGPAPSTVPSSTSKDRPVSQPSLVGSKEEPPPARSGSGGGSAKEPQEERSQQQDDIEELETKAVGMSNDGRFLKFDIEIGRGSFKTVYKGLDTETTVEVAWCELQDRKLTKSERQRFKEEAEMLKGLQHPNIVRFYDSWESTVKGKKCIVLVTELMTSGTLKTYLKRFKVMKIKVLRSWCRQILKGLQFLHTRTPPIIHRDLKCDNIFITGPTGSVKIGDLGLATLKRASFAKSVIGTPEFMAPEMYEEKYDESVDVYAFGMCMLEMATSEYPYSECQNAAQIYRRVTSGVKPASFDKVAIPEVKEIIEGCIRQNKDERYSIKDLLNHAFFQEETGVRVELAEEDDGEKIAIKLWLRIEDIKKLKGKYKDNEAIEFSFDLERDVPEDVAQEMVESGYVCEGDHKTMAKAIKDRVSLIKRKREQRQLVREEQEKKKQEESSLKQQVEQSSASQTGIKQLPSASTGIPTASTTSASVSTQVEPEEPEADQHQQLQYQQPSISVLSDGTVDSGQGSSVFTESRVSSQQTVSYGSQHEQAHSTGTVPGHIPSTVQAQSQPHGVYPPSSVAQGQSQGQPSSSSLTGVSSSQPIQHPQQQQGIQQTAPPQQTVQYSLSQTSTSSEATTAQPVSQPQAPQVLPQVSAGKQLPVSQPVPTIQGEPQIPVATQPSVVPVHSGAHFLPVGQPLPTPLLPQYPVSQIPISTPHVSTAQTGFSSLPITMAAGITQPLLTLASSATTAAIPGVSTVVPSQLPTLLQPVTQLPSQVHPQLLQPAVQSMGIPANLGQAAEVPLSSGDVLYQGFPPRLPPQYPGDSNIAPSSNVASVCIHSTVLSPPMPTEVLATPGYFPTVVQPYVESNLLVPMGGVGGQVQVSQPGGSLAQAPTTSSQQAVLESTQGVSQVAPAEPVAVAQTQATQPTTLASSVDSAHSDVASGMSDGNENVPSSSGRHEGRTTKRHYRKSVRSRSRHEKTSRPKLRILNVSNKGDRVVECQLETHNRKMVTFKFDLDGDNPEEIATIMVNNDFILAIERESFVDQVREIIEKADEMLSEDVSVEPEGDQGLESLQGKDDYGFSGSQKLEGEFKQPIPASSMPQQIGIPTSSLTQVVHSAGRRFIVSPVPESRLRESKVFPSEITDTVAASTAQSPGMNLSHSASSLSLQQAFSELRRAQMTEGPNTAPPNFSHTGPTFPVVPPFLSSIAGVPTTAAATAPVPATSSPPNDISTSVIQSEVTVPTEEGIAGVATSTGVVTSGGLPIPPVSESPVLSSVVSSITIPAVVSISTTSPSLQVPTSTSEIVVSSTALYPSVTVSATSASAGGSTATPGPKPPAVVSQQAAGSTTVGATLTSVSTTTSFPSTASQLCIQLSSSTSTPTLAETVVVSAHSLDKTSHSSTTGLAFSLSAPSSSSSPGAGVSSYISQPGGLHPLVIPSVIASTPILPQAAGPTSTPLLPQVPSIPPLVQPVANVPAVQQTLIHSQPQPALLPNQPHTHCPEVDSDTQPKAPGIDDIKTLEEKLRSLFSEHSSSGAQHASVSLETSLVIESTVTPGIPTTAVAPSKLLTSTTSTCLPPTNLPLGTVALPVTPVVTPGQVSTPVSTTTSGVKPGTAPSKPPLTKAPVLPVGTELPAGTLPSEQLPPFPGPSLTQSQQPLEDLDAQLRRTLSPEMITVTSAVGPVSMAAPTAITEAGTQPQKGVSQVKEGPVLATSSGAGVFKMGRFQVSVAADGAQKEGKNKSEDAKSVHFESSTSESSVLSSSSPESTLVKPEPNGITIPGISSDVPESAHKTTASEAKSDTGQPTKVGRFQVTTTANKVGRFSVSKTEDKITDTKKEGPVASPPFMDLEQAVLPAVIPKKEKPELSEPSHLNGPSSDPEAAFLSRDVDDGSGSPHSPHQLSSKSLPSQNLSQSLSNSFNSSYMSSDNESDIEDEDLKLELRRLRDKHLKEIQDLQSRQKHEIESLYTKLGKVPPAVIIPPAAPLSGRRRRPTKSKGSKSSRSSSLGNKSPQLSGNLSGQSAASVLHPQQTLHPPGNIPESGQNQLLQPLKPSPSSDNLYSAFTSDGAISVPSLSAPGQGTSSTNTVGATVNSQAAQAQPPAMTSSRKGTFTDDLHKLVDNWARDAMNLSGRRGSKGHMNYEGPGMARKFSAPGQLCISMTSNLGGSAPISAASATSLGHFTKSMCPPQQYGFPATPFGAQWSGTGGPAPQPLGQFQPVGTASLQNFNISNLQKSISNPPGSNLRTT

Compound: O=C(NOC[C@H](O)CO)c1ccc(F)c(F)c1Nc1ccc(I)cc1F
% of control [3]: 85%

Compound: Cc1cc(C)cc([C@@H]2c3cc(C)ccc3NC(=O)CN2C(=O)c2ccc(Br)s2)c1
% of activity ([5]; at 1 µM): 16.7%
% of activity ([5]; at 10 µM): 7.33%

Compound: N#Cc1cccc(-c2c[nH]c3ncnc(N4CCOCC4)c23)c1
% of inhibition [6]: -6%

More lines, now with the values ahead:

% of inhibition [1]: 67.7%
Compound: Cn1cc(-n2cnc3c(NCc4nc5cc(Cl)c(Cl)cc5[nH]4)nc(N4CCOCC4)nc32)cn1

% of activity ([2]; at 1 µM): 100%
% of activity ([2]; at 10 µM): 96.7%
Compound: Cc1cc(C)cc([C@H]2c3cc(C)ccc3NC(=O)CN2C(=O)c2ccc(Br)s2)c1

% of control [4]: 100%
Compound: CCN(CC)CCCCNc1ncc2cc(-c3cc(OC)cc(OC)c3)c(NC(=O)NC(C)(C)C)nc2n1

Source: ChEMBL document CHEMBL5465560, “Selectivity Literature for EUbOPEN Chemogenomic Library” (2024)
